Test systems include A549 NSCLC; ACHN renal; IGROV1 ovarian; M14 melanoma; MDA-MB-435; MOLT-4 leukemia; NCI-H226 lung; NCI-H460 lung; OVCAR-8 ovarian; SK-OV-3 ovarian.
What all share (assay): DTP human tumour cell line panel, 48 h

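Protocol summary: plate cells (96-well), add compound at 5 concentrations, incubate 48 h, interpolate endpoints linearly. TGI: total growth inhibition.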

As for `COc1cc(C2c3cc4c(cc3OC(O)C2C)OCO4)cc(OC)c1O` (stereo not given), the TGI in the assay with A549 NSCLC was more than 100 µM; in the assay on ACHN renal, more than 100 µM; with IGROV1 ovarian it was more than 100 µM; in the assay on M14 melanoma it was more than 60 µM; with MDA-MB-435, 5.22 µM; with MOLT-4 leukemia, more than 100 µM. The total growth inhibition concentration (TGI) is 64.3 µM in the assay with NCI-H226 lung, more than 70.5 µM with NCI-H460 lung, more than 100 µM in the assay with OVCAR-8 ovarian and 55.7 µM in the assay on SK-OV-3 ovarian.

Regarding `CC[C@]12C=CCN3CCC4(c5cc(N=Nc6ccc([N+](=O)[O-])cc6)c(OC)cc5N(C)[C@H]4[C@@](O)(C(=O)OC)[C@@H]1OC(C)=O)[C@@H]32` (stereo not given in full), the TGI in the assay with A549 NSCLC was more than 100 µM; in the assay on ACHN renal it was 67.8 µM; with IGROV1 ovarian, 33.2 µM; with M14 melanoma it was 40.5 µM; in the assay on MDA-MB-435, 31.6 µM; with MOLT-4 leukemia, 13.1 µM. The TGI with NCI-H226 lung was 56.5 µM; with NCI-H460 lung it was more than 100 µM; with OVCAR-8 ovarian, more than 100 µM; with SK-OV-3 ovarian, more than 100 µM.

As for `CCC(CCCCC1CC[C@H]2CC(=O)C[C@@H]12)OC` (stereo not given in full), the concentration for total growth inhibition (TGI) in the assay on A549 NSCLC, with ACHN renal, in the assay with IGROV1 ovarian, in the assay with M14 melanoma, in the assay with MDA-MB-435 and in the assay with MOLT-4 leukemia was more than 100 µM in each case. Further, the TGI in the assay with NCI-H226 lung, with NCI-H460 lung, in the assay with OVCAR-8 ovarian and in the assay on SK-OV-3 ovarian was more than 100 µM in each case.

In the case of `CCOC(=O)c1nc2ccc(C(F)(F)F)cc2nc1Nc1ccc(OC)c(OC)c1`, the TGI with A549 NSCLC, with ACHN renal, with IGROV1 ovarian, in the assay on M14 melanoma, with MDA-MB-435 and in the assay with MOLT-4 leukemia was more than 100 µM throughout. Further, the concentration for total growth inhibition (TGI) in the assay with NCI-H226 lung, in the assay with NCI-H460 lung, with OVCAR-8 ovarian and with SK-OV-3 ovarian was more than 100 µM throughout.

With `Clc1ccc(CSCc2ccc(Cl)cc2Cl)c(Cl)c1`, the TGI in the assay on A549 NSCLC, with ACHN renal, with IGROV1 ovarian, in the assay with M14 melanoma, in the assay on MDA-MB-435 and in the assay on MOLT-4 leukemia was more than 100 µM throughout. Moreover, the TGI in the assay with NCI-H226 lung, in the assay on NCI-H460 lung, in the assay with OVCAR-8 ovarian and with SK-OV-3 ovarian was more than 100 µM in each case.

Take `CC[C@@H]1C[C@@H](O)[C@@H]2[C@H](O)[C@H](O)CN2C1`: the TGI in the assay on A549 NSCLC, in the assay with ACHN renal, in the assay with IGROV1 ovarian, in the assay on M14 melanoma, with MDA-MB-435 and in the assay on MOLT-4 leukemia was more than 100 µM in each case. Moreover, the TGI in the assay with NCI-H226 lung, with NCI-H460 lung, in the assay on OVCAR-8 ovarian and with SK-OV-3 ovarian was more than 100 µM throughout.

Take `O=C1C=Cc2c(I)sc(I)c21`: the total growth inhibition concentration (TGI) was more than 100 µM in the assay with A549 NSCLC; more than 100 µM with ACHN renal; 31 µM in the assay on IGROV1 ovarian; 75.8 µM with M14 melanoma; 62.1 µM with MDA-MB-435; 42.3 µM with MOLT-4 leukemia. For the same compound, the TGI in the assay on NCI-H226 lung was more than 100 µM; in the assay on NCI-H460 lung, more than 100 µM; in the assay with OVCAR-8 ovarian it was 42.3 µM; in the assay with SK-OV-3 ovarian, more than 100 µM.

As for `CN(C)N1C(=O)CC2(CCN(CCCC(=O)c3ccc(F)cc3)CC2)C1=O`, the TGI with A549 NSCLC, in the assay on ACHN renal, in the assay with IGROV1 ovarian, in the assay with M14 melanoma, in the assay on MDA-MB-435 and in the assay on MOLT-4 leukemia was more than 100 µM each time. In addition, the TGI with NCI-H226 lung, with NCI-H460 lung, with OVCAR-8 ovarian and in the assay with SK-OV-3 ovarian was more than 100 µM each time.

For the compound `Cc1c(C)c(C)c(CSC(=N)N)c(C)c1C`, the TGI with A549 NSCLC is 30.9 µM; with ACHN renal it was 30.1 µM; in the assay on IGROV1 ovarian, more than 100 µM; with M14 melanoma it was 22.7 µM; with MDA-MB-435 it was 31.3 µM; with MOLT-4 leukemia it was 33 µM. The TGI with NCI-H226 lung turned out to be 27.8 µM; in the assay with NCI-H460 lung, 26.8 µM; in the assay on OVCAR-8 ovarian, 58.2 µM; in the assay on SK-OV-3 ovarian, 34.2 µM.

Take `C(=N/Nc1ccccn1)/c1cccnc1`: the TGI with A549 NSCLC, with ACHN renal, with IGROV1 ovarian, with M14 melanoma, in the assay on MDA-MB-435 and in the assay with MOLT-4 leukemia was more than 100 µM each time. In addition, the concentration for total growth inhibition (TGI) in the assay with NCI-H226 lung, in the assay on NCI-H460 lung, with OVCAR-8 ovarian and in the assay with SK-OV-3 ovarian was more than 100 µM each time.

Turning to `CCCCN1C(=O)C[C@H]2[C@@H]3CCc4cc(OCCN5CCCC5)ccc4[C@H]3CC[C@]2(C)C1=O`, the TGI in the assay with A549 NSCLC came out at 22.5 µM; in the assay with ACHN renal, 25.5 µM; with IGROV1 ovarian, 30.7 µM; in the assay on M14 melanoma it was 3.92 µM; in the assay on MDA-MB-435 it was 19.1 µM; in the assay on MOLT-4 leukemia it was 14.3 µM. The concentration for total growth inhibition (TGI) in the assay on NCI-H226 lung came to 21.4 µM; with NCI-H460 lung, 21.3 µM; with OVCAR-8 ovarian, 30.8 µM; with SK-OV-3 ovarian it was 27.4 µM.

`CC(C)C(/C=C/c1ccc(Cl)cc1)=N\NC(=S)NN`: the total growth inhibition concentration (TGI) was more than 100 µM with A549 NSCLC; 65.6 µM with ACHN renal; more than 100 µM in the assay on IGROV1 ovarian; more than 100 µM in the assay on M14 melanoma; 85.2 µM in the assay on MDA-MB-435; more than 100 µM in the assay on MOLT-4 leukemia. The concentration for total growth inhibition (TGI) was 93 µM with NCI-H226 lung, 41.8 µM in the assay with NCI-H460 lung, more than 100 µM in the assay on OVCAR-8 ovarian and more than 100 µM with SK-OV-3 ovarian.

In the case of `Nc1nc(Cl)cc(NCC2(CO)CCC(OCc3ccccc3)C2)n1` (stereo not given), the total growth inhibition concentration (TGI) in the assay on A549 NSCLC is more than 100 µM; in the assay with ACHN renal, more than 100 µM; in the assay with IGROV1 ovarian it was more than 100 µM; in the assay with M14 melanoma, 61 µM; in the assay with MDA-MB-435, 39.9 µM; in the assay on MOLT-4 leukemia, 34.3 µM. Moreover, the concentration for total growth inhibition (TGI) with NCI-H226 lung is 84.1 µM; with NCI-H460 lung it was more than 100 µM; in the assay on OVCAR-8 ovarian it was more than 100 µM; in the assay with SK-OV-3 ovarian, 62.4 µM.

Broadly, the TGI is the concentration giving total growth inhibition.
